Source: BigSolDB 2.1

CC(=O)C1C(=O)C=C(C)OC1=O (centres undefined)
Settings	solubility (mole fraction)
in 2-butanone, 288.35 K	0.0125
in 2-butanone, 292.15 K	0.0153
in 2-butanone, 296.45 K	0.0165
in 2-butanone, 300.35 K	0.0196
in 2-butanone, 304.05 K	0.0227
in 2-butanone, 308.05 K	0.0285
in 2-butanone, 312.15 K	0.0315
in 2-butanone, 315.75 K	0.037
in DMAc, 288.35 K	0.0941
in DMAc, 292.15 K	0.111
in DMAc, 296.45 K	0.12
in DMAc, 300.45 K	0.135
in DMAc, 304.45 K	0.15
in DMAc, 308.25 K	0.168
in DMAc, 312.15 K	0.19
in DMAc, 316.35 K	0.205
in DMF, 288.5 K	0.0744
in DMF, 292.45 K	0.0857
in DMF, 296.35 K	0.093
in DMF, 299.95 K	0.105
in DMF, 304.45 K	0.123
in DMF, 307.85 K	0.139
in DMF, 312.35 K	0.162
in DMF, 315.85 K	0.181
in DMSO, 288.15 K	0.0267
in DMSO, 292.15 K	0.0314
in DMSO, 296.15 K	0.0383
in DMSO, 300.15 K	0.0462
in DMSO, 304.15 K	0.0544
in DMSO, 308.15 K	0.0599
in DMSO, 312.15 K	0.0738
in DMSO, 316.15 K	0.0874
in acetone, 288.15 K	0.0477
in acetone, 291.85 K	0.0547
in acetone, 296.15 K	0.0587
in acetone, 300.25 K	0.0695
in acetone, 304.15 K	0.0812
in acetone, 308.15 K	0.0964
in acetone, 312.05 K	0.111
in acetone, 316.25 K	0.13
in acetonitrile, 288.35 K	0.039
in acetonitrile, 292.35 K	0.0489
in acetonitrile, 296.25 K	0.0557
in acetonitrile, 300.35 K	0.0634
in acetonitrile, 304.05 K	0.0733
in acetonitrile, 308.15 K	0.0887
in acetonitrile, 312.65 K	0.107
in acetonitrile, 316.25 K	0.123
in ethanol, 288.25 K	0.00512
in ethanol, 291.95 K	0.00652
in ethanol, 296.25 K	0.00812
in ethanol, 300.35 K	0.00941
in ethanol, 303.65 K	0.0109
in ethanol, 308.55 K	0.0135
in ethanol, 312.65 K	0.0176
in ethanol, 316.15 K	0.0217
in ethyl acetate, 288.45 K	0.0499
in ethyl acetate, 292.45 K	0.0571
in ethyl acetate, 295.95 K	0.0646
in ethyl acetate, 300.25 K	0.0714
in ethyl acetate, 304.05 K	0.081
in ethyl acetate, 307.95 K	0.0938
in ethyl acetate, 312.25 K	0.109
in ethyl acetate, 316.35 K	0.128
in ethyl formate, 288.05 K	0.0536
in ethyl formate, 291.95 K	0.061
in ethyl formate, 296.15 K	0.067
in ethyl formate, 300.05 K	0.0765
in ethyl formate, 304.15 K	0.0894
in ethyl formate, 308.45 K	0.104
in ethyl formate, 312.45 K	0.119
in ethyl formate, 315.85 K	0.135
in isopropanol, 288.05 K	0.00448
in isopropanol, 292.35 K	0.0056
in isopropanol, 296.55 K	0.00709
in isopropanol, 300.15 K	0.00876
in isopropanol, 304.65 K	0.0105
in isopropanol, 308.15 K	0.0127
in isopropanol, 312.35 K	0.0168
in isopropanol, 315.65 K	0.0202
in methanol, 288.05 K	0.00588
in methanol, 292.35 K	0.00716
in methanol, 296.05 K	0.00781
in methanol, 300.15 K	0.0104
in methanol, 303.95 K	0.0113
in methanol, 308.55 K	0.0149
in methanol, 312.15 K	0.0174
in methanol, 316.05 K	0.022
in n-pentanol, 287.75 K	0.00604
in n-pentanol, 291.95 K	0.00758
in n-pentanol, 296.25 K	0.00959
in n-pentanol, 300.35 K	0.0117
in n-pentanol, 304.15 K	0.0148
in n-pentanol, 308.35 K	0.0189
in n-pentanol, 312.15 K	0.0233
in n-pentanol, 315.95 K	0.0284
in n-propanol, 287.95 K	0.00523
in n-propanol, 292.65 K	0.00657
in n-propanol, 296.35 K	0.00836
in n-propanol, 300.55 K	0.00974
in n-propanol, 304.35 K	0.0118
in n-propanol, 308.15 K	0.0143
in n-propanol, 312.65 K	0.0187
in n-propanol, 316.35 K	0.0224
